This passage reports crystallinity degree results from patent publication US20090186009A1, “SOLID MATTER CONTAINING COENZYME Q” (Kaneka Corporation, priority 2006, published 2009).

The data set is described as follows: Crystallization rate of coenzyme Q10 in granule by differential scanning calorimetric analysis. It is filed as physicochemical. Conditions: DSC, calculated from melting heat (ΔH); 20° C.→80° C. (5° C./min)→−50° C. How it is done: Calorimetric analysis of coenzyme Q10 granules obtained in Example 1 and Example 4 and oxidized coenzyme Q10 powder (Kaneka-coenzyme Q10) used as the starting material in Preparation Examples 1-3 by a differential scanning calorimetric analyzer (manufactured by SII; EXSTAR6000 DSC6220) was performed under the following conditions. The crystallization rate was calculated from the measurement value of the melting heat (ΔH).
Analysis conditions; 20° C.→80° C. (5° C./min)→−50° C. (−5° C./min)

The structures appear in SMILES notation.

Take `COC1=C(OC)C(=O)C(C/C=C(\C)CC/C=C(\C)CC/C=C(\C)CC/C=C(\C)CC/C=C(\C)CC/C=C(\C)CC/C=C(\C)CC/C=C(\C)CC/C=C(\C)CCC=C(C)C)=C(C)C1=O` [Kaneka coenzyme Q10, oxidized coenzyme Q10]: the crystallinity degree is recorded as 100%.
